{"source": "ChEMBL document CHEMBL1268989", "about": "“Design, syntheses, and SAR of 2,8-diazaspiro[4.5]decanones as T-type calcium channel antagonists” (Bioorg Med Chem Lett, 2010)", "key": {"[1]": {"biological_target": "Voltage-dependent T-type calcium channel subunit alpha-1H (Homo sapiens) (UniProt O95180)", "sequence (O95180 whole entry)": "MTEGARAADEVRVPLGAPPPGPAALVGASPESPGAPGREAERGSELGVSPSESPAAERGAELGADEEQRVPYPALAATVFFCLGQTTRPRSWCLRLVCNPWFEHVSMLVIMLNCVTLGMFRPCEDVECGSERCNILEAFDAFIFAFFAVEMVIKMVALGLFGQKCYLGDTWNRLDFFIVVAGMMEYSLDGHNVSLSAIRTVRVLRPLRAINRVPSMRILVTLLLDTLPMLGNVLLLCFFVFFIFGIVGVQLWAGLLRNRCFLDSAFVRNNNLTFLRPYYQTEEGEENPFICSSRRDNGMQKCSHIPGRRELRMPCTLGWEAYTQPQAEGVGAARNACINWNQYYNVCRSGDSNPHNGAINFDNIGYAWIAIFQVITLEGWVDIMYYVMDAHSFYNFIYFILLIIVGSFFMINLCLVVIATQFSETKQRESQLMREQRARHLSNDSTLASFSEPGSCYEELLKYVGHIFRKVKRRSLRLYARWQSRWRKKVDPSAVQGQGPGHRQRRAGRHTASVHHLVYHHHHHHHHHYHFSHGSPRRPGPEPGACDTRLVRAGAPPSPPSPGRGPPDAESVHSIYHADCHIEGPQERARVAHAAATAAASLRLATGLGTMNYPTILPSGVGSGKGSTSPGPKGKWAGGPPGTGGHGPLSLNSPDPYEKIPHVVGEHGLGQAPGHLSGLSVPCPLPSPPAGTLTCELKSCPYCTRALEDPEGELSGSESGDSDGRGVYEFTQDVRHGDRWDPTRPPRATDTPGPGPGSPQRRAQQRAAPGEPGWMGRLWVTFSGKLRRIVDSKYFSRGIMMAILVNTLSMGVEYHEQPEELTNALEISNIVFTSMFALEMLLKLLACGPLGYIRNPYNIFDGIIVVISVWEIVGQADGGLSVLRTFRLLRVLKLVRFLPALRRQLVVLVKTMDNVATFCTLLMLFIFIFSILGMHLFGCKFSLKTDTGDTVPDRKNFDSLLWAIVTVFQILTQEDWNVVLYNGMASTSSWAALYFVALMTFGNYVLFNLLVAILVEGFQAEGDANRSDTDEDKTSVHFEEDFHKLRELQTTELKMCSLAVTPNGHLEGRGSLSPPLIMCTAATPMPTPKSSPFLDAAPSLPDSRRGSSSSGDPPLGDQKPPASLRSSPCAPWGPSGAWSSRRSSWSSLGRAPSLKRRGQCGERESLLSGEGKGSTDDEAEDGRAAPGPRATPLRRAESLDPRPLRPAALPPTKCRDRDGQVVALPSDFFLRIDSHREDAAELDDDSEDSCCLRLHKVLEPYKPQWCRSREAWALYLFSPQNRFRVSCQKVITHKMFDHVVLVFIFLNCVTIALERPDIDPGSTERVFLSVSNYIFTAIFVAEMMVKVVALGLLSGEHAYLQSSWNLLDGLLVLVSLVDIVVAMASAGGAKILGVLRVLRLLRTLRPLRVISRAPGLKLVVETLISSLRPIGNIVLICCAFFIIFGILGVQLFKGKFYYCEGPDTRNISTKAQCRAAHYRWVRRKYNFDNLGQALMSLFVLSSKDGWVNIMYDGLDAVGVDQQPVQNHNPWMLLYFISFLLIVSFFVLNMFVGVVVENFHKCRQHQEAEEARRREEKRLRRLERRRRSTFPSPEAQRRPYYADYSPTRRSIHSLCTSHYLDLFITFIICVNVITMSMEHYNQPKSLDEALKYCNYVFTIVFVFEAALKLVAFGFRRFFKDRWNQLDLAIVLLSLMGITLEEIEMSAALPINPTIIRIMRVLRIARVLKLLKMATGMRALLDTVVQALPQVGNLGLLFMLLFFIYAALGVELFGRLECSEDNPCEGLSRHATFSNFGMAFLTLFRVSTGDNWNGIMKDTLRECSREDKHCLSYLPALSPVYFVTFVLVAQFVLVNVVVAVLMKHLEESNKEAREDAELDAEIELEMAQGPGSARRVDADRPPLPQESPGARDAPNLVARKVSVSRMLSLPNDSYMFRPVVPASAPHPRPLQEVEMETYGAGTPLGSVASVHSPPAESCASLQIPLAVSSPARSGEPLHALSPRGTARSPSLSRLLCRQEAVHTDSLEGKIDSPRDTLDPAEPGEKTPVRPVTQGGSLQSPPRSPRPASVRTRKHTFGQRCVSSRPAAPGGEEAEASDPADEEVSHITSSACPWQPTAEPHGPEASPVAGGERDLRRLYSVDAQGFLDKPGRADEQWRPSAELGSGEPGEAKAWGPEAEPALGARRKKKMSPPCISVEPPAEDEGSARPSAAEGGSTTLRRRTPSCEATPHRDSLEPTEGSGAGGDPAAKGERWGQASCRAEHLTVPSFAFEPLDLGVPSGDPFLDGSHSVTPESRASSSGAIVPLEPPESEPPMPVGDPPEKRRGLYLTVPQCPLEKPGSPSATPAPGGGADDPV", "experiment": "Antagonist activity against T-type calcium channel subunit alpha-1H assessed as inactivation of channel current at 0.3 uM by cell based patch clamp assay", "type": "functional"}, "[2]": {"biological_target": "Voltage-dependent L-type calcium channel subunit alpha-1C (Homo sapiens) (UniProt Q13936)", "sequence (Q13936 whole entry, looked up)": "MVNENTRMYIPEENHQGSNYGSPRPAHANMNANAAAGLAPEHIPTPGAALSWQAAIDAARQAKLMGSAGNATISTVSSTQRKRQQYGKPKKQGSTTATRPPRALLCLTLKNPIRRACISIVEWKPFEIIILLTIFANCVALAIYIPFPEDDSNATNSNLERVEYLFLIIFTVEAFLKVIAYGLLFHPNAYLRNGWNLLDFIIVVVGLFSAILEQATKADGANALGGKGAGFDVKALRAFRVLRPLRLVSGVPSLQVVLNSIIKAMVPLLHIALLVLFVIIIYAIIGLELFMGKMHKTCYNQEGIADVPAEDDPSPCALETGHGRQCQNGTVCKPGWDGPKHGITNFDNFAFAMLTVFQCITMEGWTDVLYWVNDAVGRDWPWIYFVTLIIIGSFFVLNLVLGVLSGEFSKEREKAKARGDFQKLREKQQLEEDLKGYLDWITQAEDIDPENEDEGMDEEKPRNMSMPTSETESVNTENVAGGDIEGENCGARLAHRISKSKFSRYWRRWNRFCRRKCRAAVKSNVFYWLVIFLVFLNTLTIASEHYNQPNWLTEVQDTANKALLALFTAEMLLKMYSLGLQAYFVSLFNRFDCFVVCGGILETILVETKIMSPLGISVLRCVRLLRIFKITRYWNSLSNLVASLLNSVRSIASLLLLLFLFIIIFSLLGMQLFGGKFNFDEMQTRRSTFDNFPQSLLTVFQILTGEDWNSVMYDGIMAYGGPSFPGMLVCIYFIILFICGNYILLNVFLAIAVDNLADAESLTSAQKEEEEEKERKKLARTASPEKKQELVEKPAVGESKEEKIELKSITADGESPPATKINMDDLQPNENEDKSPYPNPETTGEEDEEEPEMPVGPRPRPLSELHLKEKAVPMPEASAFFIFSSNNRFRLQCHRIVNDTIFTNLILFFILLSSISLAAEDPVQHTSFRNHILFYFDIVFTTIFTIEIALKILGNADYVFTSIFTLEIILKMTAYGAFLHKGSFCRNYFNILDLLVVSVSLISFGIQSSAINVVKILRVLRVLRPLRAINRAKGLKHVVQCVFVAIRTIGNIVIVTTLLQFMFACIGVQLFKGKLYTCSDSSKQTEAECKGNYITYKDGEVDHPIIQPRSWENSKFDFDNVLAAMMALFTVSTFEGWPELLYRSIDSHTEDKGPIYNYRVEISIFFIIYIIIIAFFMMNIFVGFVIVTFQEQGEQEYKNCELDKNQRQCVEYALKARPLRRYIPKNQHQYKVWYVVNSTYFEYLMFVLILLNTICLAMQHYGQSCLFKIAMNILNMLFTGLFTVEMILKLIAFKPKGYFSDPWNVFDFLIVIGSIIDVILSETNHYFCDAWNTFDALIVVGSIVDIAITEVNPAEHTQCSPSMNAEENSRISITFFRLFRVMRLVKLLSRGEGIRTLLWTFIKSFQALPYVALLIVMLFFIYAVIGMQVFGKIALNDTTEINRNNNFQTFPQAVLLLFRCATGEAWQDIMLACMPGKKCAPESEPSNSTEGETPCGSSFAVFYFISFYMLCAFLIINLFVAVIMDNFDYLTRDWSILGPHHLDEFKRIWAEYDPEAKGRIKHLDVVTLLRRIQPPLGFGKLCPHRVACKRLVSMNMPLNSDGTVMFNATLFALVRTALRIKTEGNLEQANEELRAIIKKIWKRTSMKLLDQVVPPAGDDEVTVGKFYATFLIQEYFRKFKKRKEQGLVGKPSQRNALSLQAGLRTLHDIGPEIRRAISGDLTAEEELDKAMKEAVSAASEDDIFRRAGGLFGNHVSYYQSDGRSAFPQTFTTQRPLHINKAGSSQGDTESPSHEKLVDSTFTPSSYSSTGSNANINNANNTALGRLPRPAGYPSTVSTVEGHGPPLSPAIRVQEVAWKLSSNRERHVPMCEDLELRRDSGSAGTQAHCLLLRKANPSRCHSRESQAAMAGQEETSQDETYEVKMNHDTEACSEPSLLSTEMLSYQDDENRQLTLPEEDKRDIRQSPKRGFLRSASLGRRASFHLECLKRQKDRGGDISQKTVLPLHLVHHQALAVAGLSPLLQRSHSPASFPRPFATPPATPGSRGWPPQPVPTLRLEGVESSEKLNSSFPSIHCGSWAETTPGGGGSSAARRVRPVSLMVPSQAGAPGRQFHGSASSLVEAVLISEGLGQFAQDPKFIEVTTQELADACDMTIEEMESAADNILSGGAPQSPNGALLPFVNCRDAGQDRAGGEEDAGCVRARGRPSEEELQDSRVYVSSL", "experiment": "Antagonist activity against L-type calcium channel subunit alpha-1C assessed as inactivation of channel current at 0.3 uM by cell based patch clamp assay"}, "[3]": {"biological_target": "Voltage-dependent T-type calcium channel subunit alpha-1H (Homo sapiens) (UniProt O95180)", "experiment": "Antagonist activity against T-type calcium channel subunit alpha-1H assessed as inactivation of channel current at 1 uM by cell based patch clamp assay", "type": "functional"}, "[4]": {"biological_target": "Voltage-dependent T-type calcium channel subunit alpha-1H (Homo sapiens) (UniProt O95180)", "experiment": "Antagonist activity against T-type calcium channel subunit alpha-1H assessed as inactivation of channel current at 3 uM by cell based patch clamp assay", "type": "functional"}, "[5]": {"biological_target": "Voltage-dependent L-type calcium channel subunit alpha-1C (Homo sapiens) (UniProt Q13936)", "experiment": "Antagonist activity against L-type calcium channel subunit alpha-1C assessed as inactivation of channel current at 0.1 uM by cell based patch clamp assay"}, "[6]": {"biological_target": "Voltage-dependent L-type calcium channel subunit alpha-1C (Homo sapiens) (UniProt Q13936)", "experiment": "Antagonist activity against L-type calcium channel subunit alpha-1C assessed as inactivation of channel current at 3 uM by cell based patch clamp assay"}, "[7]": {"biological_target": "Voltage-dependent T-type calcium channel subunit alpha-1H (Homo sapiens) (UniProt O95180)", "experiment": "Antagonist activity against T-type calcium channel subunit alpha-1H assessed as inactivation of channel current at 0.1 uM by cell based patch clamp assay", "type": "functional"}, "[8]": {"biological_target": "Voltage-dependent T-type calcium channel subunit alpha-1H (Homo sapiens) (UniProt O95180)", "experiment": "Antagonist activity against T-type calcium channel subunit alpha-1H assessed as inactivation of channel current at 0.03 uM by cell based patch clamp assay", "type": "functional"}, "[9]": {"experiment": "Selectivity for T-type calcium channel subunit alpha-1H over L-type calcium channel subunit alpha-1C"}, "[10]": {"biological_target": "Voltage-dependent L-type calcium channel subunit alpha-1C (Homo sapiens) (UniProt Q13936)", "experiment": "Antagonist activity against L-type calcium channel subunit alpha-1C assessed as inactivation of channel current at 10 uM by cell based patch clamp assay"}}, "note": "Active and inactive are the calls of the source. The calls are words filed in the database; no cut-off is given here."}
{"molecule": "CC(C)(C)CCN1CCC2(CCN(C(c3ccc(F)cc3)c3ccc(F)cc3)CC2)C1=O", "values": [{"measurement": "inhibition", "setting": "[1]", "value": 44, "unit": "%"}, {"measurement": "inhibition", "setting": "[2]", "value": 60, "unit": "%"}]}
{"molecule": "O=C(c1ccc(F)cc1)N1CCC2(CC1)CCN(Cc1ccc(Cl)cc1)C2=O", "values": [{"measurement": "inhibition", "setting": "[3]", "value": "< 20", "unit": "%"}]}
{"molecule": "O=C1NCCC12CCN(C(c1ccc(F)cc1)c1ccc(F)cc1)CC2", "values": [{"measurement": "inhibition", "setting": "[4]", "value": "< 20", "unit": "%"}, {"measurement": "inhibition", "setting": "[3]", "value": "inactive"}]}
{"molecule": "O=C(c1ccc(Cl)cc1)N1CCC2(CCN(C(c3ccc(F)cc3)c3ccc(F)cc3)CC2)C1", "values": [{"measurement": "inhibition", "setting": "[1]", "value": 59, "unit": "%"}, {"measurement": "inhibition", "setting": "[5]", "value": 44, "unit": "%"}]}
{"molecule": "O=C1N(Cc2ccc(Cl)cc2)CCC12CCN(S(=O)(=O)c1ccc(F)cc1)CC2", "values": [{"measurement": "inhibition", "setting": "[4]", "value": 45, "unit": "%"}, {"measurement": "inhibition", "setting": "[6]", "value": 54, "unit": "%"}]}
{"molecule": "O=C1N(Cc2ccc(Cl)cc2)CCC12CCN(Cc1ccc(F)cc1)CC2", "values": [{"measurement": "inhibition", "setting": "[4]", "value": 65, "unit": "%"}, {"measurement": "inhibition", "setting": "[6]", "value": 59, "unit": "%"}]}
{"molecule": "CC(C)OCCCN1CCC2(CCN(C(c3ccc(F)cc3)c3ccc(F)cc3)CC2)C1=O", "values": [{"measurement": "inhibition", "setting": "[3]", "value": 76, "unit": "%"}, {"measurement": "inhibition", "setting": "[6]", "value": 56, "unit": "%"}]}
{"molecule": "O=C1N(Cc2ccc(Cl)cc2)CCC12CCN(CC(c1ccc(F)cc1)c1ccc(F)cc1)CC2", "values": [{"measurement": "inhibition", "setting": "[7]", "value": 59, "unit": "%"}]}
{"molecule": "O=C1N(Cc2cccc(Cl)c2)CCC12CCN(C(c1ccc(F)cc1)c1ccc(F)cc1)CC2", "values": [{"measurement": "inhibition", "setting": "[8]", "value": "< 20", "unit": "%"}, {"measurement": "inhibition", "setting": "[1]", "value": 91, "unit": "%"}]}
{"molecule": "CCOc1ccccc1CN1CCC2(CC1)CCN(Cc1ccc(Cl)cc1)C2=O", "values": [{"measurement": "inhibition", "setting": "[4]", "value": 67, "unit": "%"}]}
{"molecule": "COc1cccc(CN2CCC3(CCN(C(c4ccc(F)cc4)c4ccc(F)cc4)CC3)C2=O)c1", "values": [{"measurement": "Ratio IC50", "setting": "[9]", "value": 8}, {"measurement": "inhibition", "setting": "[8]", "value": 52, "unit": "%"}, {"measurement": "inhibition", "setting": "[2]", "value": 67, "unit": "%"}]}
{"molecule": "O=C1N(CCc2ccc(Cl)cc2)CCC12CCN(C(c1ccc(F)cc1)c1ccc(F)cc1)CC2", "values": [{"measurement": "inhibition", "setting": "[8]", "value": 30, "unit": "%"}]}
{"molecule": "O=C1CC2(CCN(C(c3ccc(F)cc3)c3ccc(F)cc3)CC2)CN1Cc1ccc(Cl)cc1", "values": [{"measurement": "inhibition", "setting": "[3]", "value": 68, "unit": "%"}, {"measurement": "inhibition", "setting": "[5]", "value": 42, "unit": "%"}]}
{"molecule": "CC(C)N1CCC2(CCN(C(c3ccc(F)cc3)c3ccc(F)cc3)CC2)C1=O", "values": [{"measurement": "inhibition", "setting": "[4]", "value": 57, "unit": "%"}, {"measurement": "inhibition", "setting": "[6]", "value": 52, "unit": "%"}]}
{"molecule": "O=C1N(CCCN2CCOCC2)CCC12CCN(C(c1ccc(F)cc1)c1ccc(F)cc1)CC2", "values": [{"measurement": "inhibition", "setting": "[3]", "value": 35, "unit": "%"}]}
{"molecule": "COCCN1CCC2(CCN(C(c3ccc(F)cc3)c3ccc(F)cc3)CC2)C1=O", "values": [{"measurement": "inhibition", "setting": "[3]", "value": 28, "unit": "%"}]}
{"molecule": "Fc1ccc(C(c2ccc(F)cc2)N2CCC3(CCN(Cc4ccc(Cl)cc4)C3)CC2)cc1", "values": [{"measurement": "inhibition", "setting": "[3]", "value": 66, "unit": "%"}]}
{"molecule": "O=C1N(Cc2ccc(Cl)cc2)CCC12CCN(C(c1ccc(F)cc1)c1ccc(F)cc1)CC2", "values": [{"measurement": "Ratio IC50", "setting": "[9]", "value": 10}, {"measurement": "inhibition", "setting": "[8]", "value": 58, "unit": "%"}, {"measurement": "inhibition", "setting": "[5]", "value": 31, "unit": "%"}]}
{"molecule": "O=C1N(Cc2ccc(Cl)cc2)CCC12CCNCC2", "values": [{"measurement": "inhibition", "setting": "[4]", "value": "< 20", "unit": "%"}]}
{"molecule": "O=C1N(Cc2ccc(Cl)cc2)CCC12CCN(Cc1cccc(Oc3ccccc3)c1)CC2", "values": [{"measurement": "inhibition", "setting": "[1]", "value": 56, "unit": "%"}]}
{"molecule": "COCCCN1CCC2(CCN(C(c3ccc(F)cc3)c3ccc(F)cc3)CC2)C1=O", "values": [{"measurement": "inhibition", "setting": "[3]", "value": 44, "unit": "%"}, {"measurement": "inhibition", "setting": "[10]", "value": 58, "unit": "%"}]}
{"molecule": "CC(C)C(C(C)C)N1CCC2(CCN(Cc3ccc(Cl)cc3)C2=O)CC1", "values": [{"measurement": "inhibition", "setting": "[1]", "value": 40, "unit": "%"}]}
